Read-outs that look alike come from different tables or passages of the source.
Legend:
[1] = test system: male diabetic db/db mice; experiment: Diabetic nephropathy study in db/db mice (serum/urine parameters, renal histology); assay type: in vivo; conditions: for glomerular mesangial matrix expansion (histology) / tubulointerstitial fibrosis (histology): compared with diabetic vehicle; for effects on fasted or post-prandial glucose levels: db/db mice, 12 weeks treatment, linagliptin 3 mg/kg/day, enalapril 20 mg/kg/day
Method: (§1) Diabetic nephropathy is the main cause of end-stage renal disease. […] Heterozygous db/+ mice treated with vehicle were used as controls (n=8). Levels of glucose, triglycerides, insulin, cystatin C and creatinine were analysed in serum and urine samples at baseline and monthly thereafter. Body weight, urinary albumin excretion and OGTT were monitored periodically.
(§2) Renal histology (glomerulosclerosis, tubulointerstitial fibrosis) and expression of the sialoglycoprotein podocalyxin (a marker of podocyte integrity in the glomeruli, marker for glomerular damage), glucagon-like peptide 1 receptor (GLP-1R), alpha-smooth muscle actin and type I collagen were evaluated at the end of the study.

[2] = test system: podocalyxin; experiment: Podocalyxin immunohistochemistry of kidney sections (podocyte integrity) in db/db mice; assay type: in vivo; conditions: 12 weeks, semi-quantitative score 0-3, p<0.05 vs diabetic mice
Method: The expression of podocalyxin is analysed by immunohistochemistry using a podocalyxin specific antibody. Kidney sections from male diabetic db/db mice (10 weeks old at start and treated for 3 months) in the following groups are analysed:
All of the evaluations of the glomerular staining intensities are done semi-quantitatively by two different experts of kidney pathology blinded for the slides.
The predefined scoring gradient is 0, 1, 2, and 3.0 means no expression, whereas 3 is given when expression is highest. Group means are compared with a non-parametric test. P values less than 0.05 are considered significant.
as §1, §2

[3] = Pooled analysis of four 24-week placebo-controlled trials: albuminuria in T2D patients with early diabetic nephropathy on stable ACE/ARB (set 1); assay type: in vivo, human; conditions: 5 mg qd, 24 weeks
Excerpt: Despite optimal therapy, people with type 2 diabetes (T2D) remain at high risk for kidney damage, manifest as abuminuria, and many develop progressive renal failure. Further, despite optimal therapy with inhibitors of the renin-angiotensin-aldosterone system (RAAS), patients with type 2 diabetes mellitus (T2DM) remain at an increased risk of progressive renal failure and cardiovascular disease, for which abuminuria has emerged as a predictive biomarker. […] Participants were included in this analysis if they had: i) 30≦UACR≦3000 mg/g creatinine; ii) stable treatment with ACE/ARBs ≧4 weeks prior and during the trial; and iii) eGFR >30 ml/min/1.73 m^2. The endpoint was the percentage change in geometric mean UACR. […] After 24 weeks, placebo-corrected changes in A1C and FPG were −0.71% and −26 mg/dl, respectively (both p<0.0001). […] This protective effect may be independent of race.
(§3) The endpoint in both sets was the percentage change in geometric mean UACR after 24 weeks.

[4] = Meta-analysis of renal safety/outcomes in 13 phase 3 placebo-controlled trials, 5466 T2D patients
Excerpt: The aim of this study was to evaluate renal safety/outcomes with linagliptin in phase 3, randomized, double-blind, placebo-controlled trials (≧12 wks).

[5] = Pooled analysis of seven placebo-controlled trials: albuminuria in elderly T2D patients with diabetic nephropathy (set 2); assay type: in vivo, human; conditions: 5 mg q.d., 24 weeks, set 2, aged ≧65 years
Excerpt: as §3

[6] = for feτ, s: steady state (Day 12), gMean
[7] = test system: glucagon-like peptide 1 receptor (GLP-1R); experiment: GLP-1R immunohistochemical staining of kidney sections in db/db mice; assay type: in vivo; conditions: P<0.05 vs vehicle-treated db/db mice
Method: as §1, §2

[8] = linagliptin compared with enalapril, p<0.05

Compound: CCOC(=O)[C@H](CCc1ccccc1)N[C@@H](C)C(=O)N1CCC[C@H]1C(=O)O [enalapril, reference compound]
- glomerular mesangial matrix expansion (histology) ([1]; p<0.05): reduced almost to control levels
- tubulointerstitial fibrosis (histology) ([1]; p<0.05): reduced almost to control levels
- effects on fasted or post-prandial glucose levels [1]: limited effects
- podocalyxin expression (glomerular staining score) [2]: 2.4±0.2

Compound: CC#CCn1c(N2CCC[C@@H](N)C2)nc2c1c(=O)n(Cc1nc(C)c3ccccc3n1)c(=O)n2C [linagliptin]
- UACR between group difference vs placebo ([3]; set 1): −29%
- lowering of adjusted UACR (percentage change in geometric mean) ([3]; set 1, on stable ACE/ARB): 33%
- patients with composite renal endpoint events ([4]; linagliptin 5 mg qd, n=3505): 12.8%
- patients with composite renal endpoint events (number) ([4]; linagliptin 5 mg qd, n=3505): 448
- HR for the composite endpoint vs placebo ([4]; patients <65 yrs): 0.77
- HR for the composite endpoint vs placebo ([4]; patients >65 yrs): 1.04
- UACR reduction versus placebo (trend) [5]: −25%
- glomerular mesangial matrix expansion (histology) ([1]; p<0.05): reduced almost to control levels
- tubulointerstitial fibrosis (histology) ([1]; p<0.05): reduced almost to control levels
- effects on fasted or post-prandial glucose levels [1]: limited effects
- tubulointerstitial fibrosis [1, 8]: significantly decreased
- urinary albumin excretion rates [1, 8]: significantly decreased
- feτ, s ([6]; 1 mg once daily oral): 3.34%
- feτ, s ([6]; 2.5 mg once daily oral): 3.06%
- feτ, s ([6]; 5 mg once daily oral): 6.27%
- feτ, s ([6]; 10 mg once daily oral): 3.22%
- route of excretion ([6]; human, in vivo): primarily excreted unchanged via the bile
- excreted via the kidney ([6]; therapeutic oral dose levels, of the administered oral dose): < 7%
- podocalyxin expression (glomerular staining score) [2]: 2.3±0.2
- expression of GLP-1R in the glomeruli [7]: 1.90±0.04
